{"source": "patent US20120225180A1", "about": "“SALTINESS-IMPROVING AGENT FOR SALTY FOOD AND DRINK” (priority 2009, published 2012)", "assay": "Saltiness evaluation of shiokara (comparison evaluation of flavor by 10 panelists)", "type": "in vivo", "settings": "for Evaluation A: the number of panelists who felt stimulation of saltiness / Evaluation B: the number of panelists who slightly felt stimulation of saltiness / Evaluation N: the number of panelists who judged that the stimulation of saltiness was reduced to mild saltiness / Flavor judgment: the number of panelists who judged it as most proper saltiness: 10 panelists", "description": "Sedanenolide was added as a saltiness-improving agent (salty stimulation-reducing agent) of the present invention to commercially available salted squid to obtain shiokara containing sedanenolide at the concentrations shown in the following Table 1.\nA: the number of panelists who felt stimulation of saltiness B: the number of panelists who slightly felt stimulation of saltiness N: the number of panelists who judged that the stimulation of saltiness was reduced to mild saltiness Flavor judgment: the number of panelists who judged it as most proper saltiness", "key": {"[1]": {"settings": "shiokara containing 0.01 ppb sedanenolide"}, "[2]": {"settings": "shiokara containing 0.01 ppm sedanenolide"}, "[3]": {"settings": "shiokara containing 0.1 ppb sedanenolide"}, "[4]": {"settings": "shiokara containing 0.1 ppm sedanenolide"}, "[5]": {"settings": "shiokara containing 1 ppb sedanenolide"}, "[6]": {"settings": "shiokara containing 1 ppm sedanenolide"}, "[7]": {"settings": "shiokara containing 1 ppt sedanenolide"}, "[8]": {"settings": "shiokara containing 10 ppm sedanenolide"}}}
{"molecule": "CCCC[C@@H]1OC(=O)C2=C1CCC=C2", "note": "[sedanenolide]", "values": [{"measurement": "saltiness improvement, overall result", "setting": "amount of sedanenolide about 0.1 ppb to 1 ppm", "result": "particularly good results"}, {"measurement": "improvement in stimulation of saltiness", "setting": "low concentration of 0.01 ppb sedanenolide", "result": "some panelists felt some improvement in stimulation of saltiness"}, {"measurement": "Evaluation A: the number of panelists who felt stimulation of saltiness", "setting": "[1]", "result": 6}, {"measurement": "Evaluation B: the number of panelists who slightly felt stimulation of saltiness", "setting": "[1]", "result": 4}, {"measurement": "Evaluation N: the number of panelists who judged that the stimulation of saltiness was reduced to mild saltiness", "setting": "[1]", "result": 0}, {"measurement": "Flavor judgment: the number of panelists who judged it as most proper saltiness", "setting": "[1]", "result": 0}, {"measurement": "stimulation of saltiness", "setting": "shiokara containing 0.01 ppb to 10 ppm of sedanenolide", "result": "improved"}, {"measurement": "Evaluation A: the number of panelists who felt stimulation of saltiness", "setting": "[2]", "result": 2}, {"measurement": "Evaluation B: the number of panelists who slightly felt stimulation of saltiness", "setting": "[2]", "result": 2}, {"measurement": "Evaluation N: the number of panelists who judged that the stimulation of saltiness was reduced to mild saltiness", "setting": "[2]", "result": 6}, {"measurement": "Flavor judgment: the number of panelists who judged it as most proper saltiness", "setting": "[2]", "result": 3}, {"measurement": "Evaluation A: the number of panelists who felt stimulation of saltiness", "setting": "[3]", "result": 2}, {"measurement": "Evaluation B: the number of panelists who slightly felt stimulation of saltiness", "setting": "[3]", "result": 7}, {"measurement": "Evaluation N: the number of panelists who judged that the stimulation of saltiness was reduced to mild saltiness", "setting": "[3]", "result": 1}, {"measurement": "Flavor judgment: the number of panelists who judged it as most proper saltiness", "setting": "[3]", "result": 0}, {"measurement": "Evaluation A: the number of panelists who felt stimulation of saltiness", "setting": "[4]", "result": 1}, {"measurement": "Evaluation B: the number of panelists who slightly felt stimulation of saltiness", "setting": "[4]", "result": 2}, {"measurement": "Evaluation N: the number of panelists who judged that the stimulation of saltiness was reduced to mild saltiness", "setting": "[4]", "result": 7}, {"measurement": "Flavor judgment: the number of panelists who judged it as most proper saltiness", "setting": "[4]", "result": 4}, {"measurement": "Evaluation A: the number of panelists who felt stimulation of saltiness", "setting": "[5]", "result": 3}, {"measurement": "Evaluation B: the number of panelists who slightly felt stimulation of saltiness", "setting": "[5]", "result": 2}, {"measurement": "Evaluation N: the number of panelists who judged that the stimulation of saltiness was reduced to mild saltiness", "setting": "[5]", "result": 5}, {"measurement": "Flavor judgment: the number of panelists who judged it as most proper saltiness", "setting": "[5]", "result": 0}, {"measurement": "Evaluation A: the number of panelists who felt stimulation of saltiness", "setting": "[6]", "result": 0}, {"measurement": "Evaluation B: the number of panelists who slightly felt stimulation of saltiness", "setting": "[6]", "result": 1}, {"measurement": "Evaluation N: the number of panelists who judged that the stimulation of saltiness was reduced to mild saltiness", "setting": "[6]", "result": 9}, {"measurement": "Flavor judgment: the number of panelists who judged it as most proper saltiness", "setting": "[6]", "result": 2}, {"measurement": "Evaluation A: the number of panelists who felt stimulation of saltiness", "setting": "[7]", "result": 10}, {"measurement": "Evaluation B: the number of panelists who slightly felt stimulation of saltiness", "setting": "[7]", "result": 0}, {"measurement": "Evaluation N: the number of panelists who judged that the stimulation of saltiness was reduced to mild saltiness", "setting": "[7]", "result": 0}, {"measurement": "Flavor judgment: the number of panelists who judged it as most proper saltiness", "setting": "[7]", "result": 0}, {"measurement": "Evaluation A: the number of panelists who felt stimulation of saltiness", "setting": "[8]", "result": 0}, {"measurement": "Evaluation B: the number of panelists who slightly felt stimulation of saltiness", "setting": "[8]", "result": 1}, {"measurement": "Evaluation N: the number of panelists who judged that the stimulation of saltiness was reduced to mild saltiness", "setting": "[8]", "result": 9}, {"measurement": "Flavor judgment: the number of panelists who judged it as most proper saltiness", "setting": "[8]", "result": 1}]}
